assay: Spectroscopic properties of the BDM library (absorbance and emission maxima); type: physicochemical; conditions: not given

Structure (SMILES)	λmax (ABS) [nm]	λmax (EM) [nm]
CCCCc1ccc(/C=C/C2=[N+]3C(=C(CCN)c4cccn4[B-]3(F)F)C(C)=C2)cc1 [BDM-263]	559	571
CC1=CC(/C=C/c2ccc(-c3ccccc3)c(F)c2)=[N+]2C1=C(CCN)c1cccn1[B-]2(F)F [BDM-425]	562	576
COc1ccc(-c2ccc(/C=C/C3=[N+]4C(=C(CCN)c5cccn5[B-]4(F)F)C(C)=C3)o2)cc1Cl [BDM-195]	600	663
CCc1ccccc1/C=C/C1=[N+]2C(=C(CCN)c3cccn3[B-]2(F)F)C(C)=C1 [BDM-251]	556	572
COc1cc2ccccc2c(/C=C/C2=[N+]3C(=C(CCN)c4cccn4[B-]3(F)F)C(C)=C2)c1OC [BDM-301]	563	586
CC1=CC(/C=C/c2ccc(-c3ccccn3)cc2)=[N+]2C1=C(CCN)c1cccn1[B-]2(F)F [BDM-88]	565	576
Cc1cc(/C=C/c2ccc(C)c3ccccc23)n2c1C(CCN)=C1C=CC=[N+]1[B-]2(F)F [BDM-36]	568	595
Cc1cc(/C=C/c2cc(C(C)(C)C)ccc2O)n2c1C(CCN)=C1C=CC=[N+]1[B-]2(F)F [BDM-43]	564	579
Cc1ccc2cccc(/C=C/c3cc(C)c4n3[B-](F)(F)[N+]3=CC=CC3=C4CCN)c2c1 [BDM-34]	547	581
CC(=O)Nc1ccc(/C=C/C2=[N+]3C(=C(CCN)c4cccn4[B-]3(F)F)C(C)=C2)cc1 [BDM-111]	566	589
CCN(CC)c1ccc(/C=C/C2=[N+]3C(=C(CCN)c4cccn4[B-]3(F)F)C(C)=C2)cc1 [BDM-107]	617	681
CCOc1ccc(/C=C/C2=[N+]3C(=C(CCN)c4cccn4[B-]3(F)F)C(C)=C2)cc1 [BDM-429]	564	586
COc1ccc(/C=C/c2cc(C)c3n2[B-](F)(F)[N+]2=CC=CC2=C3CCN)c(Cl)c1O [BDM-38]	565	579
Cc1cc(/C=C/c2ccc(N(C)CCC#N)cc2)n2c1C(CCN)=C1C=CC=[N+]1[B-]2(F)F [BDM-3]	600	683
COc1ccc(/C=C/C2=[N+]3C(=C(CCN)c4cccn4[B-]3(F)F)C(C)=C2)cc1F [BDM-314]	556	570
CC1=CC(/C=C/c2ccc(Oc3cc(Cl)cc(Cl)c3)cc2)=[N+]2C1=C(CCN)c1cccn1[B-]2(F)F [BDM-308]	556	567
COc1c(Br)cc(Br)cc1/C=C/C1=[N+]2C(=C(CCN)c3cccn3[B-]2(F)F)C(C)=C1 [BDM-241]	560	576
CC1=CC(/C=C/c2c(C)cc(C)cc2C)=[N+]2C1=C(CCN)c1cccn1[B-]2(F)F [BDM-108]	549	573
CC1=CC(/C=C/c2cccc(O)c2Cl)=[N+]2C1=C(CCN)c1cccn1[B-]2(F)F [BDM-283]	556	567
CC1=CC(/C=C/c2ccc(Oc3ccccc3)cc2)=[N+]2C1=C(CCN)c1cccn1[B-]2(F)F [BDM-101]	559	576
CC1=CC(/C=C/c2ccc(Oc3ccc(Cl)c(Cl)c3)cc2)=[N+]2C1=C(CCN)c1cccn1[B-]2(F)F [BDM-299]	555	563

Structure (SMILES)	λmax (ABS) [nm]	λmax (EM) [nm]
CC1=CC(/C=C/c2cccc(C=O)c2)=[N+]2C1=C(CCN)c1cccn1[B-]2(F)F [BDM-391]	554	563
COc1cccc(/C=C/C2=[N+]3C(=C(CCN)c4cccn4[B-]3(F)F)C(C)=C2)c1 [BDM-186]	553	564
CC1=CC(/C=C/c2cc(C)c(C)cc2C)=[N+]2C1=C(CCN)c1cccn1[B-]2(F)F [BDM-343]	559	577
Cc1cc(/C=C/c2ccc(Cl)cc2)n2c1C(CCN)=C1C=CC=[N+]1[B-]2(F)F [BDM-12]	556	567
COc1ccc(Br)cc1/C=C/c1cc(C)c2n1[B-](F)(F)[N+]1=CC=CC1=C2CCN [BDM-54]	559	573
CC1=CC(/C=C/c2ccc(C)cc2)=[N+]2C1=C(CCN)c1cccn1[B-]2(F)F [BDM-208]	558	572
CC1=CC(/C=C/c2ccc(OC(C)(C)C)cc2)=[N+]2C1=C(CCN)c1cccn1[B-]2(F)F [BDM-75]	560	585
CC1=CC(/C=C/c2ccccc2OC(F)F)=[N+]2C1=C(CCN)c1cccn1[B-]2(F)F [BDM-240]	552	565
CC1=CC(/C=C/c2ccc(Oc3ccc(C(C)(C)C)cc3)cc2)=[N+]2C1=C(CCN)c1cccn1[B-]2(F)F [BDM-435]	555	565
CC1=CC(/C=C/c2c(C)cccc2Cl)=[N+]2C1=C(CCN)c1cccn1[B-]2(F)F [BDM-285]	544	561
COc1cccc(/C=C/C2=[N+]3C(=C(CCN)c4cccn4[B-]3(F)F)C(C)=C2)c1O [BDM-97]	561	572
COc1ccc(/C=C/C2=[N+]3C(=C(CCN)c4cccn4[B-]3(F)F)C(C)=C2)cc1O [BDM-132]	568	594
CSc1ccccc1/C=C/C1=[N+]2C(=C(CCN)c3cccn3[B-]2(F)F)C(C)=C1 [BDM-333]	557	575
Cc1cc(/C=C/c2ccc(N(C)C)cc2)n2c1C(CCN)=C1C=CC=[N+]1[B-]2(F)F [BDM-2]	607	685
COc1cc(/C=C/c2cc(C)c3n2[B-](F)(F)[N+]2=CC=CC2=C3CCN)cc(OC)c1OC [BDM-1]	561	586
C=CCOc1ccccc1/C=C/C1=[N+]2C(=C(CCN)c3cccn3[B-]2(F)F)C(C)=C1 [BDM-202]	559	575
COc1ccc(/C=C/C2=[N+]3C(=C(CCN)c4cccn4[B-]3(F)F)C(C)=C2)cc1 [BDM-110]	563	583
CC1=CC(/C=C/c2ccc(C)cc2Br)=[N+]2C1=C(CCN)c1cccn1[B-]2(F)F [BDM-267]	558	573
CC1=CC(/C=C/c2cccc3c2OCO3)=[N+]2C1=C(CCN)c1cccn1[B-]2(F)F [BDM-231]	558	568
C=CCOc1ccc(/C=C/c2cc(C)c3n2[B-](F)(F)[N+]2=CC=CC2=C3CCN)cc1 [BDM-48]	563	583

assay: Quantum yield measurements; type: physicochemical; conditions: referred to Rhodamine B in EtOH, excitation 510 nm, emission integrated 540-800 nm
Method in brief: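 Integrated fluorescence emission from 540 to 800 nm was referenced to Rhodamine B in EtOH (Φ=0.70) after excitation at 510 nm. Quantum yield was calculated with correction for solvent refractive index and absorbance at the excitation wavelength.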

Structure (SMILES)	φ (quantum yield)
CCCCc1ccc(/C=C/C2=[N+]3C(=C(CCN)c4cccn4[B-]3(F)F)C(C)=C2)cc1 [BDM-263]	0.26
CC1=CC(/C=C/c2ccc(-c3ccccc3)c(F)c2)=[N+]2C1=C(CCN)c1cccn1[B-]2(F)F [BDM-425]	0.12
COc1ccc(-c2ccc(/C=C/C3=[N+]4C(=C(CCN)c5cccn5[B-]4(F)F)C(C)=C3)o2)cc1Cl [BDM-195]	0.03
CCc1ccccc1/C=C/C1=[N+]2C(=C(CCN)c3cccn3[B-]2(F)F)C(C)=C1 [BDM-251]	0.22
COc1cc2ccccc2c(/C=C/C2=[N+]3C(=C(CCN)c4cccn4[B-]3(F)F)C(C)=C2)c1OC [BDM-301]	0.41
CC1=CC(/C=C/c2ccc(-c3ccccn3)cc2)=[N+]2C1=C(CCN)c1cccn1[B-]2(F)F [BDM-88]	0.21
Cc1cc(/C=C/c2ccc(C)c3ccccc23)n2c1C(CCN)=C1C=CC=[N+]1[B-]2(F)F [BDM-36]	0.23
Cc1cc(/C=C/c2cc(C(C)(C)C)ccc2O)n2c1C(CCN)=C1C=CC=[N+]1[B-]2(F)F [BDM-43]	0.21
Cc1ccc2cccc(/C=C/c3cc(C)c4n3[B-](F)(F)[N+]3=CC=CC3=C4CCN)c2c1 [BDM-34]	0.65
CC(=O)Nc1ccc(/C=C/C2=[N+]3C(=C(CCN)c4cccn4[B-]3(F)F)C(C)=C2)cc1 [BDM-111]	0.79
CCN(CC)c1ccc(/C=C/C2=[N+]3C(=C(CCN)c4cccn4[B-]3(F)F)C(C)=C2)cc1 [BDM-107]	0.05
CCOc1ccc(/C=C/C2=[N+]3C(=C(CCN)c4cccn4[B-]3(F)F)C(C)=C2)cc1 [BDM-429]	0.23
COc1ccc(/C=C/c2cc(C)c3n2[B-](F)(F)[N+]2=CC=CC2=C3CCN)c(Cl)c1O [BDM-38]	0.06
Cc1cc(/C=C/c2ccc(N(C)CCC#N)cc2)n2c1C(CCN)=C1C=CC=[N+]1[B-]2(F)F [BDM-3]	0.05
COc1ccc(/C=C/C2=[N+]3C(=C(CCN)c4cccn4[B-]3(F)F)C(C)=C2)cc1F [BDM-314]	0.10
CC1=CC(/C=C/c2ccc(Oc3cc(Cl)cc(Cl)c3)cc2)=[N+]2C1=C(CCN)c1cccn1[B-]2(F)F [BDM-308]	0.19
COc1c(Br)cc(Br)cc1/C=C/C1=[N+]2C(=C(CCN)c3cccn3[B-]2(F)F)C(C)=C1 [BDM-241]	0.32
CC1=CC(/C=C/c2c(C)cc(C)cc2C)=[N+]2C1=C(CCN)c1cccn1[B-]2(F)F [BDM-108]	0.35
CC1=CC(/C=C/c2cccc(O)c2Cl)=[N+]2C1=C(CCN)c1cccn1[B-]2(F)F [BDM-283]	0.15
CC1=CC(/C=C/c2ccc(Oc3ccccc3)cc2)=[N+]2C1=C(CCN)c1cccn1[B-]2(F)F [BDM-101]	0.66
CC1=CC(/C=C/c2ccc(Oc3ccc(Cl)c(Cl)c3)cc2)=[N+]2C1=C(CCN)c1cccn1[B-]2(F)F [BDM-299]	0.27

Structure (SMILES)	φ (quantum yield)
CC1=CC(/C=C/c2cccc(C=O)c2)=[N+]2C1=C(CCN)c1cccn1[B-]2(F)F [BDM-391]	0.31
COc1cccc(/C=C/C2=[N+]3C(=C(CCN)c4cccn4[B-]3(F)F)C(C)=C2)c1 [BDM-186]	0.97
CC1=CC(/C=C/c2cc(C)c(C)cc2C)=[N+]2C1=C(CCN)c1cccn1[B-]2(F)F [BDM-343]	0.28
Cc1cc(/C=C/c2ccc(Cl)cc2)n2c1C(CCN)=C1C=CC=[N+]1[B-]2(F)F [BDM-12]	0.32
COc1ccc(Br)cc1/C=C/c1cc(C)c2n1[B-](F)(F)[N+]1=CC=CC1=C2CCN [BDM-54]	0.52
CC1=CC(/C=C/c2ccc(C)cc2)=[N+]2C1=C(CCN)c1cccn1[B-]2(F)F [BDM-208]	0.27
CC1=CC(/C=C/c2ccc(OC(C)(C)C)cc2)=[N+]2C1=C(CCN)c1cccn1[B-]2(F)F [BDM-75]	0.53
CC1=CC(/C=C/c2ccccc2OC(F)F)=[N+]2C1=C(CCN)c1cccn1[B-]2(F)F [BDM-240]	0.23
CC1=CC(/C=C/c2ccc(Oc3ccc(C(C)(C)C)cc3)cc2)=[N+]2C1=C(CCN)c1cccn1[B-]2(F)F [BDM-435]	0.39
CC1=CC(/C=C/c2c(C)cccc2Cl)=[N+]2C1=C(CCN)c1cccn1[B-]2(F)F [BDM-285]	0.51
COc1cccc(/C=C/C2=[N+]3C(=C(CCN)c4cccn4[B-]3(F)F)C(C)=C2)c1O [BDM-97]	0.04
COc1ccc(/C=C/C2=[N+]3C(=C(CCN)c4cccn4[B-]3(F)F)C(C)=C2)cc1O [BDM-132]	0.05
CSc1ccccc1/C=C/C1=[N+]2C(=C(CCN)c3cccn3[B-]2(F)F)C(C)=C1 [BDM-333]	0.30
Cc1cc(/C=C/c2ccc(N(C)C)cc2)n2c1C(CCN)=C1C=CC=[N+]1[B-]2(F)F [BDM-2]	0.01
COc1cc(/C=C/c2cc(C)c3n2[B-](F)(F)[N+]2=CC=CC2=C3CCN)cc(OC)c1OC [BDM-1]	0.21
C=CCOc1ccccc1/C=C/C1=[N+]2C(=C(CCN)c3cccn3[B-]2(F)F)C(C)=C1 [BDM-202]	0.52
COc1ccc(/C=C/C2=[N+]3C(=C(CCN)c4cccn4[B-]3(F)F)C(C)=C2)cc1 [BDM-110]	0.85
CC1=CC(/C=C/c2ccc(C)cc2Br)=[N+]2C1=C(CCN)c1cccn1[B-]2(F)F [BDM-267]	0.21
CC1=CC(/C=C/c2cccc3c2OCO3)=[N+]2C1=C(CCN)c1cccn1[B-]2(F)F [BDM-231]	0.17
C=CCOc1ccc(/C=C/c2cc(C)c3n2[B-](F)(F)[N+]2=CC=CC2=C3CCN)cc1 [BDM-48]	0.83

Reference: patent US9267949B2, “Alkylamino BODIPY dyes as selective fluorescent probes for proteins and mouse embryonic stem cells” (National University of Singapore, priority 2011, dated 2016)
